Source: patent US9624161B2 (priority 2009, dated 2017)

Tests used:
[1] = Oral bioavailability in dogs; format: in vivo; conditions: dog, plasma, depending on the formulation and route of administration
Procedure: (§1) Formulations using polyethylene glycol 300 (PEG300) generally produced higher exposures than microemulsions prepared in Tween 80 diluted in deionized water. […] Importantly, in dogs the exposure in the male 30 mg/kg PEG300 oral dose group exceeded the exposure necessary to produce the maximal effect on prostate reduction in the rat model of LH suppression.

[2] = Preliminary oral pharmacokinetics in monkeys; format: in vivo, monkey; conditions: preliminary pharmacokinetic studies
Procedure: as §1

[3] = system: men with advanced prostate cancer; assay: Study 2: Phase 2 trial in men with advanced prostate cancer, Compound IV 1000 or 2000 mg daily versus leuprolide depot; format: in vivo, human; conditions: for Castrated (%) at Day 28 / Castrated (%) on both Day 28 and Day 60 / No. Castrated at Day 28 / No. Castrated on both Day 28 and Day 60: ITT; for Subjects that achieved castration (total T<50 ng/dL) by Day 60: subjects that reached Day 60; for % Reduction on PSA at Day 28 / Mean Free T at Day 28 / Mean Total T at Day 28: subjects castrated on both day 28 and day 60; for Castration (%): patients receiving >14 days; for Median free testosterone: Day 120; for Median increase in SHBG: Day 90
Procedure: This was a prospective, randomized 1:1:1, Phase 2 open-label, multicenter, trial comprised of men with advanced prostate cancer (n=159) initiating ADT with either oral daily doses of 1000 mg Compound IV, oral daily doses of 2000 mg Compound IV, or leuprolide depot (Lupron Depot® 4 month). It was conducted according to the Declaration of Helsinki, approved by appropriate research ethics committees, and each patient provided signed informed consent prior to registration and randomization. Patient demographlics are outlined in Table 24.
The trial required each subject to remain on the study for at least 60 days. […] Subjects that achieved castration by day 60 continued for up to 360 days to assess the safety of Compound IV over this dosing duration and to assess the maintenance of total testosterone levels ≦50 ng/dL.
The major inclusion criteria for the trial were: Males between 45-80 years of age; ECOG ≦2; screening serum total testosterone ≧150 ng/dL; no prior ADT (medical or surgical) unless the subject had been treated with LHRH agent for ≦6 months duration and that treatment was ≧1 years prior to screening.
The primary endpoint of the clinical trial was the proportion of patients that achieve ≦50 ng/dL total testosterone by Day 60. Secondary efficacy endpoints evaluated included serum concentrations of free testosterone, PSA, SHBG, safety and tolerability of Compound IV, incidence and frequency of hot flashes, serum bone turnover markers [bone specific alkaline phosphatase (BSAP) and c-terminal telopeptide (CTX)] and IGF-1 levels, an indicator of insulin resistance.
All serum hormone and PSA measurements were performed by a central laboratory utilizing standard techniques. Serum total testosterone concentrations were determined using a validated liquid chromatography-tandem mass spectrometry (LC/MS-MS) method. This is the assay platform that is current utilized for total testosterone by most major laboratories and provides values which are more accurate at the lower levels of testosterone found in women, children, hypogonadal men, and men on ADT. The percent free testosterone was determined by equilibrium dialysis. Free testosterone concentrations were calculated as the product of (total testosterone by LC/MS/MS) and (free fraction by equilibrium dialysis). This combination of approaches is considered to be the gold standard with which to measure free testosterone with excellent accuracy and validity (sensitivity and specificity).
Hot flash assessments were performed utilising a standard instrument to measure the frequency and severity of hot flashes, and data were compiled at baseline, Day 28 and Day 90. The men reported as experiencing hot flashes were those indicating any in the period between the respective time point and the prior patient visit. CTX (pg/ml) assayed by an electrochemiluminescent immunoassay and BSAP (U/L) assayed by immunoenzymatic methodology were measured as indicators of bone turnover. Serum IGF-1 levels were measured by liquid chromatography/mass spectrometry (LC/MS) at the same time each day (within a +/−60 minute window).
Simple descriptive statistics and graphics were used to present the characteristics of the study population. One way Analysis of Variance (PROC GLM with CONTRAST statement) methods were used to compare total testosterone percent change from baseline to Day 28, Day 60 and Day 90. Kaplan Meier survival analysis was used to estimate the proportion of subjects that reached castrate levels by Day 60 in each treatment arm based upon time to total testosterone of ≦50 ng/dL. Fisher Exact tests were used to compare rate of hot flashes at Day 28 and Day 90 among the two Compound IV and the leuprolide arms. One way ANOVA methods were also used to compare CTX and BSAP changes from baseline to Day 120 between treatment groups. The intent-to-treat (ITT) population consisted of all randomized patients who received at least one dose of Compound IV or leuprolide depot. […]

[4] = system: castrated male cynomolgus monkeys; assay: Compound IV studies on castrated monkeys, 90 days (Example 22); format: in vivo, cynomolgus monkey
human platelets = assay: In vitro human platelet aggregation assay (thrombin-induced)
[5] = 1000 mg Compound IV, baseline to Day 120
[6] = preliminary analysis, Compound IV 2000 mg daily (41 assessed) or Lupron Depot (49 assessed)

SMILES: O=C(c1ccc(O)c(F)c1)N(c1ccc(O)cc1)c1ccc(F)cc1 [Compound IV, 3-fluoro-N-(4-fluorophenyl)-4-hydroxy-N-(4-hydroxyphenyl)benzamide]
- bioavailability [1]: 3 to 12%
- Oral bioavailability [2]: approximates or exceeds that in dogs
- Median free testosterone in castrate men (total testosterone ≦50 ng/dL) ([3]; 1000 mg): 0.4 pg/mL
- Castrated (%) at Day 28 ([3]; 1000 mg Compound IV (n = 53)): 49%
- Castrated (%) on both Day 28 and Day 60 ([3]; 1000 mg Compound IV (n = 53)): 30%
- No. Castrated at Day 28 ([3]; 1000 mg Compound IV (n = 53)): 26
- No. Castrated on both Day 28 and Day 60 ([3]; 1000 mg Compound IV (n = 53)): 16
- Subjects that achieved castration (total T<50 ng/dL) by Day 60 ([3]; 1000 mg Compound IV arm): 43.4%
- Bone specific alkaline phosphatase (BSAP) percentage change [3, 5]: −26.3%
- C-terminal telopeptides (CTX) percentage change [3, 5]: −55.3%
- % Reduction on PSA at Day 28 ([3]; 1000 mg Compound IV): 84%
- Mean Free T at Day 28 ([3]; 1000 mg Compound IV): 1.0 ± 0.8 pg/mL
- Mean Total T at Day 28 ([3]; 1000 mg Compound IV): 25 ± 15 ng/dL
- Castration (%) ([3]; 1000 mg QD, D28): 50%
- Castration (%) ([3]; 1000 mg QD, D60): 59.4%
- Castration (%) ([3]; 1000 mg QD, Ever): 61.5%
- Median free testosterone ([3]; 1000 mg arm): 0.4 pg/mL
- Subjects with a venous thromboembolism event (VTE) ([3]; 1000 mg dose arm): 9 subjects
- Median increase in SHBG ([3]; 1000 mg): 495%
- Median free testosterone in castrate men (total testosterone ≦50 ng/dL) ([3]; 2000 mg): 0.3 pg/mL
- Castrated (%) at Day 28 ([3]; 2000 mg Compound IV (n = 55)): 56%
- Castrated (%) on both Day 28 and Day 60 ([3]; 2000 mg Compound IV (n = 55)): 51%
- No. Castrated at Day 28 ([3]; 2000 mg Compound IV (n = 55)): 31
- No. Castrated on both Day 28 and Day 60 ([3]; 2000 mg Compound IV (n = 55)): 28
- Subjects that achieved castration (total T<50 ng/dL) by Day 60 ([3]; 2000 mg Compound IV arm): 63.6%
- Bone specific alkaline phosphatase (BSAP) percentage change ([3]; 2000 mg Compound IV, baseline to Day 120): −22.6%
- % Reduction on PSA at Day 28 ([3]; 2000 mg Compound IV): 73%
- Mean Free T at Day 28 ([3]; 2000 mg Compound IV): 0.7 ± 0.7 pg/mL
- Mean Total T at Day 28 ([3]; 2000 mg Compound IV): 19 ± 9 ng/dL
- Castration (%) ([3]; 2000 mg QD, D28): 31%
- Castration (%) ([3]; 2000 mg QD, D60): 79.6%
- Castration (%) ([3]; 2000 mg QD, Ever): 84.6%
- Median free testosterone ([3]; 2000 mg arm): 0.3 pg/mL
- Subjects with a venous thromboembolism event (VTE) ([3]; 2000 mg dose arm): 2 subjects
- Median increase in SHBG ([3]; 2000 mg): 583%
- Percentage of treated ADT naïve patients (castrate population) below the Free T cutoff of 0.5 pg/ml ([3]; 28 days on therapy): 28.3%
- Percentage of treated ADT naïve patients (castrate population) below the Free T cutoff of 0.5 pg/ml ([3]; 45 days on therapy): 50.9%
- Percentage of treated ADT naïve patients (castrate population) below the Free T cutoff of 0.5 pg/ml ([3]; 120 days on therapy): 58.1%
- Rate of hot flashes relative to that in the leuprolide treated group ([3]; Day 90 visits): ≤ 25%
- PSA level reached on average ([3]; Study 2 (FIG. 35)): < 0.2 µg/L
- Change in serum IGF-1 level ([3]; Study 2, 1000 mg daily (n = 53), Day 1 to Day 28): -75.2 ± 25.6 ng/mL
- Change in serum IGF-1 level ([3]; Study 2, 1000 mg daily (n = 53), Day 1 to Day 60): -73.7 ± 29.2 ng/mL
- Change in serum IGF-1 level ([3]; Study 2, 1000 mg daily (n = 53), Day 1 to Day 90): -73.1 ± 25.1 ng/mL
- Change in serum IGF-1 level ([3]; Study 2, 1000 mg daily (n = 53), Day 1 to Day 360): -35.2 ± 40.5 ng/mL
- Change in serum IGF-1 level ([3]; Study 2, 2000 mg daily (n = 55), Day 1 to Day 28): -78.6 ± 38.3 ng/mL
- Change in serum IGF-1 level ([3]; Study 2, 2000 mg daily (n = 55), Day 1 to Day 60): -77.7 ± 39.9 ng/mL
- Change in serum IGF-1 level ([3]; Study 2, 2000 mg daily (n = 55), Day 1 to Day 90): -72.7 ± 24.9 ng/mL
- Change in serum IGF-1 level ([3]; Study 2, 2000 mg daily (n = 55), Day 1 to Day 360): -33.4 ± 45.2 ng/mL
- Mean SHBG for PSA responders (>50% reduction) ([3]; Study 2, all patients (FIG. 37)): 399%+85
- Reduction in reported hot flashes ([3]; day 90): greater than 4 fold
- Increase in SHBG levels in men that responded ([3]; in vivo): 200-600%
- Number of Subjects that Experienced a Hot Flash [3, 6]: 2
- Percent of Subjects that Experienced a Hot Flash [3, 6]: 5%
- Induction of baseline SHBG ([3]; treatment naive patients (Study 2 and Study 5), after 28 days): 150-700%
- Patients with at least a 50% reduction in % FreeT ([3]; treatment naïve patients (Studies 2 and 5), after 7 days of therapy): 81%
- Patients with both at least a 50% reduction in % FreeT and a 50% reduction in PSA from baseline ([3]; treatment naïve patients (Studies 2 and 5), after a month): 80%
- Molar ratio of SHBG to Total T relative to leuprolide acetate treated patients ([3]; treatment naïve patients, after 28 days): 3-7 fold
- Drop in % FreeT ([3]; treatment naïve patients, day 28): 70%
- Serum PSA levels in castrate animals ([4]; 1, 10, 100 mg/kg/day oral (groups 4, 5 and 6), within four weeks): significantly suppressed
- Mean prostate weights at necropsy ([4]; after thirteen weeks of treatment): significantly reduces
- Testosterone flare ([4]; castrated animals treated with Compound IV): not observed
- Procoagulatory activity compared with DES (human platelets): much lower procoagulatory activity than DES
